Common to all, as to assay: NCI anticancer screen, dose series, 48 h
Assay [1] has as its system SNB-78.
The test system of assay [2] is DMS-273.
Assay [3] deals with KM-20L2.
The subject of assay [4] is RXF 631.
Assay [5] concerns DMS-114.
In assay [6] the test system is XF498.
In assay [7] the test system is MCF7.
In assay [8] the test system is T47D.
Assay [9] concerns MDA-N.

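All cell lines were grown in 96-well plates and treated with compound for 48 hours. The concentration for 50% growth inhibition is given as GI50.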 Calls of active or inactive are those of the source. Cut-off read from the data, not from the text of the source: active = GI50 up to about 1.1 µM and inactive = higher.

Take `N#CC1CCCCOCCOCCOCCOCCOCCCCCC1=O` (configuration not stated): the GI50 in assay [1], in assay [2], in assay [3], in assay [4] and in [5] was > 100 µM (inactive) throughout.

In the case of `CCSc1nnc(CSc2nc(-c3ccccc3)c(-c3ccccc3)[nH]2)n1-c1ccccc1`, the GI50 is 41.1 µM (inactive) in assay [1]; 23.4 µM (inactive) in [2]; 17.9 µM (inactive) in assay [3]; 19.6 µM (inactive) in assay [4]; 19 µM (inactive) in [5]; 20.3 µM (inactive) in assay [6].

In the case of `C/C(CCn1[nH]c(=O)ccc1=O)=N\O`, the GI50 in [1], in assay [2], in assay [3], in [4], in assay [5] and in [6] was > 100 µM (inactive) each time.

On to `COc1c(C)cc2c(c1O)C1C3[C@H]4SC[C@@]5(NCCC6=C5NC5C=CC=CC65)C(=O)OCC(c5c6c(c(C)c(OC(C)=O)c54)OCO6)N3[C@@H](O)C(C2)N1C` (some centres not stated), for which the GI50 in [2], in assay [3], in assay [5] and in assay [6] was < 0.01 µM (active) in each case.

Regarding `COCC1C(=O)c2cc3c(cc2C12C=CC1(C=C2)OCCO1)OCO3` (configuration not stated), the GI50 in assay [2] is 11.1 µM (inactive); in [3], 10.6 µM (inactive); in assay [4], 4.59 µM (inactive); in [5] it was 2.99 µM (inactive); in assay [6], 5.38 µM (inactive).

With `C[C@@H](NC1CCC[C@@H]1O)c1ccccc1` (some centres not stated), the GI50 in assay [1], in assay [2], in assay [3], in assay [5] and in assay [6] was > 100 µM (inactive) in each case.

As to `CCOC(=O)CC1=Nc2ccccc2SC1`, the GI50 in assay [1], in [2], in assay [3], in assay [4], in assay [5] and in assay [6] was > 100 µM (inactive) in each case.

With `CCOC1=NC(=O)CC(c2ccccc2)S1` (configuration not stated), the GI50 in [1], in assay [2], in assay [3] and in [6] was > 100 µM (inactive) throughout.

For `Cc1cc(Br)cc(C)c1NC(=O)C(=O)C(C(=O)c1ccncc1)C1OC(=O)c2ccccc21` (configuration not stated), the GI50 in assay [1], in assay [2], in assay [3], in assay [4], in [5] and in assay [6] was > 100 µM (inactive) in each case.

For `C/C(CN1C(=O)c2ccccc2C1=O)=N\NS(=O)(=O)c1ccc(Cl)cc1`, the GI50 in assay [1], in assay [2], in assay [3], in assay [4] and in assay [6] was > 100 µM (inactive) each time.

On to `O=C(Cc1csc(-c2nc(CC(=O)NNc3ccccc3)cs2)n1)NNc1ccccc1`, for which the GI50 in assay [1] is > 100 µM (inactive); in assay [2], 12.8 µM (inactive); in assay [3] it was > 100 µM (inactive); in assay [4] it was > 10 µM (inactive); in [5] it was 25.6 µM (inactive); in [6], > 100 µM (inactive).

As to `CC(=O)Oc1ccc(O)c(O)c1C/C=C(\C)CC/C=C(\C)CC/C=C(\C)CCC=C(C)C` [TETRAPRENYLPHENOLSUILLIN], the GI50 in [1] is 0.272 µM (active); in assay [2], 0.246 µM (active); in assay [3] it was 0.946 µM (active); in [5], 0.35 µM (active); in assay [6] it was 0.357 µM (active).

In the case of `CCOC(=O)Nc1ccc(S(=O)(=O)OC)cc1.CCOC(=O)Nc1ccc(S(=O)(=O)OC)cc1.Nc1ncnc2c1ncn2C1OC(CO)C(O)C1O` (configuration not stated), the GI50 in assay [1] was > 100 µM (inactive); in assay [2], 30.8 µM (inactive); in assay [3] it was > 100 µM (inactive); in [4] it was > 100 µM (inactive); in [5], 18 µM (inactive); in assay [6], 92.3 µM (inactive).

Take `CC[C@@]1(O)CC(OC2CC(N3CCOCC3)C(O)C(C)O2)c2c(O)c3c(c(O)c2[C@H]1O)C(=O)c1cccc(O)c1C3=O` (some centres not stated): the GI50 was 0.305 µM (active) in assay [1]; 0.0358 µM (active) in assay [2]; 0.191 µM (active) in [3]; 0.0293 µM (active) in assay [7]; 0.179 µM (active) in [8]; 0.131 µM (active) in assay [9]. Moreover, the GI50 in assay [5] was 0.0935 µM (active); in assay [6], 0.0493 µM (active).

As for `COc1cccc2cc(C)c(C(=O)c3ccccc3)nc12`, the GI50 in assay [1], in [2], in assay [3], in [4], in assay [5] and in [6] was > 100 µM (inactive) in each case.

Consider `CCCCCCC(=O)OC[n+]1ccc2c(C)c3[nH]c4ccccc4c3c(C)c2c1`, for which the GI50 in [1] is 1.09 µM (active); in assay [2], 0.106 µM (active); in assay [3], 0.582 µM (active); in assay [4], 2.54 µM (inactive); in assay [5] it was 1.08 µM (active).

Turning to `O=C(/C(=C\c1ccc(Cl)cc1)c1ccccc1)c1ccccc1`, the GI50 was > 100 µM (inactive) in [1], 21.4 µM (inactive) in [5] and 37.6 µM (inactive) in [6].

In the case of `COC(=O)c1cc(=O)nc2cc3cccccc3n12`, the GI50 in [3] and in assay [6] was > 100 µM (inactive) each time.

As for `O=C(CC1=Nc2nnc(CCCCCCCc3nnc4n3C(=O)C(CC(=O)c3ccc5ccccc5c3)=N4)n2C1=O)c1ccc2ccccc2c1`, the GI50 in assay [1] was > 100 µM (inactive); in assay [2], > 100 µM (inactive); in [3], > 100 µM (inactive); in assay [4] it was 51.9 µM (inactive); in assay [5], > 100 µM (inactive); in assay [6], > 100 µM (inactive).

As for `COC(=O)/C(=N\Nc1nc(S)nn1N)C(C#N)c1ccc(Cl)cc1` (configuration not stated), the GI50 in [1], in [2], in assay [3], in assay [4], in [5] and in assay [6] was > 100 µM (inactive) each time.

Turning to `O=C(NO)C12C3C4C1C1C2C3C41C(=O)NO` (configuration not stated), the GI50 in [1], in assay [2], in assay [3] and in assay [5] was > 100 µM (inactive) each time.

Regarding `COc1cc2c(cc1OC)-c1cc(OC)c(OC)cc1[C@H]1CN3CCC[C@@]3(O)C=C21`, the GI50 in assay [1], in [2], in assay [3], in assay [5] and in assay [6] was < 0.0001 µM (active) each time.

In the case of `CCC(=O)NCC1(c2c[nH]c3ccccc23)SCCS1`, the GI50 is > 100 µM (inactive) in assay [1]; > 100 µM (inactive) in assay [2]; > 100 µM (inactive) in assay [3]; 47.5 µM (inactive) in [5]; > 100 µM (inactive) in assay [6].

In the case of `Cc1cc(C)nc(NS(=O)(=O)c2ccc(Nc3c4ccccc4nc4c(C(=O)NCCN(C)C)ccc(Cl)c34)cc2)n1`, the GI50 was 8.3 µM (inactive) in assay [1], 2.08 µM (inactive) in assay [3], 1.01 µM (active) in assay [5] and 5.13 µM (inactive) in assay [6].

As to `COCN1COCN(C)C1=O`, the GI50 in assay [1], in assay [2], in [3], in assay [5] and in [6] was > 100 µM (inactive) throughout.

Regarding `COC(=O)/C(C#N)=C1\CCC(Nc2cccc(C(F)(F)F)c2)N1C` (configuration not stated), the GI50 in [1] is > 100 µM (inactive); in assay [3] it was 56 µM (inactive); in assay [5], > 10 µM (inactive); in assay [6], 66.2 µM (inactive).

`N/N=c1/nc2n(c3ncccc13)C=CNN2`: the GI50 in assay [2], in assay [3], in assay [4], in assay [5] and in [6] was > 100 µM (inactive) in each case.

With `CN1CN(C2OC(CO)C(O)C2O)c2nc(N)[nH]c(=O)c21` (configuration not stated), the GI50 in assay [1], in assay [2], in [3], in [5] and in [6] was > 100 µM (inactive) throughout.

For `COC(=O)C1C2C=CC(C2)C1(C(=O)OC)[S+]([O-])CC12CCC(CC1O)C2(C)C` (configuration not stated), the GI50 is > 100 µM (inactive) in assay [1]; 44.4 µM (inactive) in [2]; > 100 µM (inactive) in assay [3]; > 100 µM (inactive) in [4]; 85.7 µM (inactive) in assay [5]; > 100 µM (inactive) in assay [6].

Take `CCCCCCCCCC(=O)NC(Cc1ccc(O)cc1)C(=O)NCCCNCCCCNCCCNC(=O)[C@@H](N)CCCN=C(N)N` (some centres not stated): the GI50 in assay [2] was 20.9 µM (inactive); in assay [3], > 100 µM (inactive); in assay [5], 61.8 µM (inactive); in assay [6] it was > 100 µM (inactive).

`CC(C)[C@@H]1C=C(c2ccccc2)c2ccccc2C1C(C#N)(C#N)C(C)C` (some centres not stated): the GI50 in assay [1] was > 100 µM (inactive); in [2] it was 48.6 µM (inactive); in assay [3], > 100 µM (inactive); in assay [5], 97.7 µM (inactive); in [6], 45 µM (inactive).

Values taken from ChEMBL document CHEMBL1201862, “PubChem BioAssay data set” (2004).
